The assay deals with T1, human and rat GPR-14 (UniProt Q9UKP6).
T1 sequence (Q9UKP6 1-389): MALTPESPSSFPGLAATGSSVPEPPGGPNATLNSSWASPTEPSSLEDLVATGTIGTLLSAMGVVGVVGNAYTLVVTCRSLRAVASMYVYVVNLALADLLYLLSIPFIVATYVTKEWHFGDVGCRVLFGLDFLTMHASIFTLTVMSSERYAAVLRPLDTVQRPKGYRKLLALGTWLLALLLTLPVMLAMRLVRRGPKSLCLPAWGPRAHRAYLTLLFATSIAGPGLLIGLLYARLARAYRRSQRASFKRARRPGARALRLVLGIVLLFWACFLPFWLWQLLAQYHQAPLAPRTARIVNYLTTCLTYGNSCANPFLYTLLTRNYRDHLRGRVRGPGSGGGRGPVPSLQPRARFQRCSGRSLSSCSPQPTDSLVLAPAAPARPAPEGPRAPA
As to the kind of experiment: Radioligand binding, [125I] h-U-II, HEK-293 cell membranes. To be noted: radioligand binding assay; HEK-293 cell membranes with stable cloned GPR-14; 200 pM [125I] h-U-II. On the procedure: HEK-293 cell membranes containing stable cloned human and rat GPR-14 (20 ug/assay) were incubated with 200 pM [125I] h-U-II (200 Ci/mmol^−1 in the presence of increasing concentrations of test compounds in DMSO (0.1 nM to 10 uM), in a final incubation volume of 200 ul (20 mM Tris-HCl, 5 mM MgCl2). Incubation was done for 30 minutes at room temperature followed by filtration GF/B filters with Brandel cell harvester. ^125I labeled U-II binding was quantitated by gamma counting. Nonspecific binding was defined by ^125I U-II binding in the presence of 100 nM of unlabeled human U-II. Analysis of the data was performed by nonlinear least square fitting.

As a reminder, the Ki is the equilibrium dissociation constant of an inhibitor or competing ligand from its target. Low values mean a stronger hold on the target, high ones a looser hold on the target. Turning to `COc1cc(NCCCNC(=O)C(c2ccccc2)c2ccccc2)nc2ccccc12` [Example 29, N-[3-(4-Methoxy-quinolin-2-ylamino)-propyl]-2,2-diphenyl-acetamide], affinity was put at a Ki of 90 nM.

For the origin of these results see patent publication US6818655B2, “Urotensin-II receptor antagonists” (SmithKline Beecham Corporation, priority 2001, dated 2004).
